Data from US12606554B2, “Compounds and pharmaceutical compositions thereof for the treatment of diseases” (ONCO3R Therapeutics BV, priority 2019, dated 2026).

Test system: LPS triggered IL-10 secretion in monocyte-derived macrophages (MdM)
Test: MdM assay: LPS-triggered IL-10 (ELISA)
Assay type: cell-based, human
Details: LPS 200 ng/mL, maximal fold change vs LPS only
Experimental: SIK inhibition inhibits TNFα and increases IL-10 release in LPS triggered monocyte-derived macrophages (MdM) and dendritic cells (MdDCs) (Clark et al. 2012; Sundberg et al. 2014; Ozanne et al. 2015). This assay evaluates illustrative compounds of the invention for their inhibition of LPS-induced TNFα and LPS triggered IL-10 secretion in monocyte-derived macrophages.
PBMCs are isolated from human blood samples (buffycoats). The buffy coat is aseptically transferred into a 50 mL Falcon tube, and diluted ½ in PBS. Falcon tubes are filled with 20 mL Lymphoprep™, on top of which 25 mL of the buffy coat is carefully added, tubes are centrifuged for 35 min at 400 g in temperature controlled centrifuge, without brake, at 25° C. PBMCs are aspirated from the white interface layer between sample and Lymphoprep™. PBMCs are washed five times in PBS. Cells are resuspended in RPMI 1640 complete medium supplemented with 10% FBS, 1% P/S, and cell density is determined using a hematologic analyzer (Sysmex XS-500i). […]
The columns are removed from the magnets, and 5 mL of Miltenyi buffer are added to the column to flush out the CD14+ fraction by pushing the plunger into the column. […] The obtained cell pellet is resuspended in 10 mL RPMI w/o FBS, and cell density is determined using a hematologic analyser (Sysmex XS-500i). […]

With `COc1cc(-c2cnn3cc(OCCN4CCOCC4)ccc23)cc2c1C(=O)N(CC(F)(F)F)CC2` [Cpd 1, 8-methoxy-6-[6-(2-morpholinoethoxy)pyrazolo[1,5-a]pyridin-3-yl]-2-(2,2,2-trifluoroethyl)-3,4-dihydroisoquinolin-1-one] the “IL-10 FCmax median” value was “++ (>1.5-4.5)”.
